In one data set the test system is ob/ob and db/db mice. The settings on record: following 8 weeks of administration; cited from earlier work.
Data set [1] has as its target recombinant human AMPK complex 1 (containing α1β1γ1) (Homo sapiens, UniProt Q13131+Q9Y478). The data set is described as follows: In vitro AMPK activation assay (AMPKSAMSF). Format: biochemical. The note with it: recombinant human AMPK complex 1 (α1β1γ1); for Emax: read-out: maximum AMP activation. The protocol: AMPKSAMSF (In Vitro AMPK Activation Assay)
The recombinant human AMPK complex 1 (containing α1β1γ1) was obtained from baculovirus expression system. Recombinant viruses were generated by cotransfection of AMPK/pBacPak9 clones with Baculogold baculovirus DNA (Pharmingen) in spodoptera frugiperda 21 cells according to the manufacturer's instructions. Each round of virus amplification was performed for 5 days in Grace's medium containing 10% serum. Virus that had been subjected to three rounds of amplification was used for all protein production procedures. To express the AMPK complex, sf21 cells were adapted to serum free medium (SF900 II, Invitrogen) by sequential dilution from serum containing stocks into SF900 II medium and maintained in shaker flasks at 90 rpm at 27° C. The recombinant AMPK enzyme complex was produced by triple infection, one recombinant virus for each of the subunits, in sf21 cells under serum free conditions. Cells were infected in log phase, 1×10^6 cells/ml, at a multiplicity of infection of ˜5. Cells were harvested by centrifugation at 10,000×g for 15 minutes after 72 hours of infection with viruses. The insect cell pellet from 2 liters of culture was resuspended in 50 ml lysis buffer (20 mM Tris-HCl, 50 mM NaCl, 50 mM NaF, 30 mM Na PPi, 0.25 M sucrose, 10 mM ZnCl2, 2 mM DTT, 0.4 mg/ml digitonin) and subjected to two cycles of freeze-thaw lysis in a dry-ice ethanol bath. Insoluble material was removed by centrifugation at 10,000×g and the supernatant was fractionated with use of polyethylene glycol (PEG). The protein fraction precipitating between 2.5 and 6% PEG was used for further purification using a Blue-Sepharose step (Zhou et al, J. Clin. Invest. 108, 1167-1174, 2001).
The total in vitro AMPK activation assay volume is 50 μl in a 96-well plate. The reaction mixture contained 100 μM ATP (0.5 μCi ^33P-ATP per reaction), and 50 μM SAMS (HMRSAMSGLHLVKRR) in a buffer (20 mM HEPES, pH 7.0, 5 mM MgCl2, 0.01% Brij35). The reaction was initiated with addition of the enzyme. After 30-minute incubation at 30° C., the reaction was stopped by addition of 80 μl 1% H3PO4. Aliquots (100 μl) were transferred to 96-well MultiScreen plates (MAPHNOB50; Millipore Corp., Bedford, Mass., USA). The plate was washed three times with 1% H3PO4 followed by detection in a Top-count. The counts per minute from the basal activity (the reaction without activator) was subtracted from each well and the data were expressed as % maximum AMP activation followed by EC50 calculation.

Where a name gives a salt, the structure may show the parent alone.

For orientation: melting point means the temperature of the solid-liquid transition. The term EC50 denotes the concentration giving half of the maximal effect.

Chain of recombinant human AMPK complex 1 (containing α1β1γ1) (Q13131 whole entry): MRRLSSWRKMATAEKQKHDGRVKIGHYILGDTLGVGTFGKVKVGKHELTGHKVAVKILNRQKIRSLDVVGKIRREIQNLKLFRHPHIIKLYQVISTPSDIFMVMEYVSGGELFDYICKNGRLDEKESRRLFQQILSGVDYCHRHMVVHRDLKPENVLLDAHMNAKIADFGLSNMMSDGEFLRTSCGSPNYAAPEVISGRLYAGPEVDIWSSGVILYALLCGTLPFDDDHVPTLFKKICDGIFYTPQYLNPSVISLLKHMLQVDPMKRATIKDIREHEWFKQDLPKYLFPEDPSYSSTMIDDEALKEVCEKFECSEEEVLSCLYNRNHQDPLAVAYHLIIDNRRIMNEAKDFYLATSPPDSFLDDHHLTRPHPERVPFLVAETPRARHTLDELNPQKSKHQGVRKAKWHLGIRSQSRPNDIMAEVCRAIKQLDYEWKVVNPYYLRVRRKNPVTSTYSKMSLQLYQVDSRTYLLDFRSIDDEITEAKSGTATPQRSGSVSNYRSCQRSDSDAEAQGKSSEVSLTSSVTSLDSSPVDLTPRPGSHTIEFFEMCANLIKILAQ
Chain of recombinant human AMPK complex 1 (containing α1β1γ1) (Q9Y478 whole entry): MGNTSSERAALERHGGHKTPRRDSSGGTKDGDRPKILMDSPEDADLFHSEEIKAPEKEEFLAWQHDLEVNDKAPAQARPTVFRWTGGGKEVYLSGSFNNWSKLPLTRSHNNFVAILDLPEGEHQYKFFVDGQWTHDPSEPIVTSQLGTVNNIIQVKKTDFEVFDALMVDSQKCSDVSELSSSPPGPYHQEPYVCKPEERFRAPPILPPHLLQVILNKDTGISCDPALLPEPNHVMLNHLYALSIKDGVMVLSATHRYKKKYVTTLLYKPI
Chain of recombinant human AMPK complex 1 (containing α1β1γ1) (P54619 whole entry partner): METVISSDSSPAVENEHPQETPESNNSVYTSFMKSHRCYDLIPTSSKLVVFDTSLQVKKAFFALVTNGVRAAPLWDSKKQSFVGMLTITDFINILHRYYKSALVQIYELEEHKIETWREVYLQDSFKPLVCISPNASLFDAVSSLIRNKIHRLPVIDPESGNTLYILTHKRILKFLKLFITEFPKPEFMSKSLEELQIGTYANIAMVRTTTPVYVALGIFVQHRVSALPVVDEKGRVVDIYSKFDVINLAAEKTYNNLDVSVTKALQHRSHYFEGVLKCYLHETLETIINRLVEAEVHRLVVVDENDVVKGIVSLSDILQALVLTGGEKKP

Molecule `Cc1ccc(Oc2nc3cc(-c4ccc(-c5ccccc5)cc4)c(Cl)cc3[nH]2)cc1P(=O)(O)O` (as salt: salt) [Example 1, ((5-(4-Biphenyl)-6-chloro-1H-benzimidazol-2-yl)oxo)-4-methylphen-3-ylphosphonic acid] yielded a melting point of 225 to 228 °C.

Regarding `NC(=O)c1ncn([C@@H]2O[C@H](CO)[C@@H](O)[C@H]2O)c1N` [AICAR], the blood glucose reduction with ob/ob and db/db mice is listed as 35%.

`O=P(O)(O)c1cccc(Oc2nc3cc(-c4ccc(-c5ccccc5)cc4)c(Cl)cc3[nH]2)c1` [Example 2, ((5-(4-Biphenyl)-6-chloro-1H-benzimidazol-2-yl)oxo)phen-3-ylphosphonic acid] returned a melting point of 199 to 205 °C. Besides, in data set [1], the EC50 amounted to 2.5 nM and the Emax was > 80%. Also, in data set [1] (basal activity subtracted), the “% Maximum AMP Activation of human AMPK Complex 1” value turned out to be 205%.

For `Cc1ccc(Cc2nc3cc(-c4ccc(-c5ccccc5)cc4)c(Cl)cc3[nH]2)cc1P(=O)(O)O` [Example 11, {5-[(5-biphenyl-4-yl-6-chloro-1H-benzimidazol-2-yl)methyl]-2-methylphenyl}phosphonic acid], the melting point was > 220 °C. Moreover, in data set [1], the Emax was > 80%.

`CCOC(=O)CNP(=O)(NCC(=O)OCC)c1cc(Oc2nc3cc(-c4ccc5c(ccn5C)c4)c(Cl)cc3[nH]2)ccc1C` [Example 27, {[6-Chloro-5-(1-methyl-1H-indol-5-yl)-1-H-benzimidazol-2-yl]oxo}-4-methylphen-3-ylphosphono-bis-2-amino-ethanoic acid ethyl ester]: the Emax in data set [1] was > 80%.

With `CCOC(=O)CNP(=O)(NCC(=O)OCC)c1cc(Oc2nc3cc(-c4ccc(C5CCCCC5)cc4)c(Cl)cc3[nH]2)ccc1C` [Example 28, {[6-Chloro-5-(4-cyclohexylphenyl)-1H-benzoimidazol-2-yl]oxo}-4-methylphen-3-ylphosphono-bis-2-amino-ethanoic acid ethyl ester], the Emax in data set [1] is > 80%.

(Values after US8410284B2, “Cyclic benzimidazole derivatives useful as anti-diabetic agents” (Merck Sharp & Dohme Corp, priority 2008, dated 2013).)
